The values that follow come from ChEMBL document CHEMBL5653631, “A Potent and Selective ULK1 Inhibitor Suppresses Autophagy and Sensitizes Cancer Cells to Nutrient Stress” (iScience, 2018).

Each structure is given as a SMILES string.

Assay [1] deals with T1, Serine/threonine-protein kinase Nek9 (Homo sapiens) (UniProt Q8TD19).
T1 sequence (whole entry): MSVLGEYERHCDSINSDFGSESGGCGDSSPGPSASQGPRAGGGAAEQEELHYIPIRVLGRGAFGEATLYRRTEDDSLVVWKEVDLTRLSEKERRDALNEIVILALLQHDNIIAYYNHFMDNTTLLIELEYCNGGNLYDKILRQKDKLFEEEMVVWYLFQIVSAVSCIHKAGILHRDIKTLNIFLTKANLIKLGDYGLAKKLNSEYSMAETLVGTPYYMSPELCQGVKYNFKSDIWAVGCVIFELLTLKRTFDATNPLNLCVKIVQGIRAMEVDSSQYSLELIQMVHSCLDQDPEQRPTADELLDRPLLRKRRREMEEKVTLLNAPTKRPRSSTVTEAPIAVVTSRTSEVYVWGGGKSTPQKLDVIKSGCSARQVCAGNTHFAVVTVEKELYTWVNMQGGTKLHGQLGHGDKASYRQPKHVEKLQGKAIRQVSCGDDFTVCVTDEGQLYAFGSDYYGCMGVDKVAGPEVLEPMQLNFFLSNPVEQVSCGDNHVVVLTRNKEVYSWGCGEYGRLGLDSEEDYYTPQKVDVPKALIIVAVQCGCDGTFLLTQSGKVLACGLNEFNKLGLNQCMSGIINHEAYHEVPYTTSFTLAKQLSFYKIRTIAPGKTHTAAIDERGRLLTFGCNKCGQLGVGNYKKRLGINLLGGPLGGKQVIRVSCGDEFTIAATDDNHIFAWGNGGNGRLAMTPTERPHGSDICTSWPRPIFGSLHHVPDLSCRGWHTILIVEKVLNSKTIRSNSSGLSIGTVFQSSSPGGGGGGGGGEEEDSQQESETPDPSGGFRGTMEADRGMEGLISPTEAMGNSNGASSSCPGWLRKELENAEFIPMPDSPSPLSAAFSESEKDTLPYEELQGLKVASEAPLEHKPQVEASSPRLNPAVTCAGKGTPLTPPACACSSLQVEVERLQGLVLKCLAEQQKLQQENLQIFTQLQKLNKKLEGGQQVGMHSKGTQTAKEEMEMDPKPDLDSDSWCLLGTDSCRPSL
As to the kind of experiment: Inhibition of human recombinant NEK9 at 40 nM related to control ULK1.

For assay [2], the target named is T2, Tyrosine-protein kinase receptor TYRO3 (Homo sapiens) (UniProt Q06418).
T2 sequence (whole entry): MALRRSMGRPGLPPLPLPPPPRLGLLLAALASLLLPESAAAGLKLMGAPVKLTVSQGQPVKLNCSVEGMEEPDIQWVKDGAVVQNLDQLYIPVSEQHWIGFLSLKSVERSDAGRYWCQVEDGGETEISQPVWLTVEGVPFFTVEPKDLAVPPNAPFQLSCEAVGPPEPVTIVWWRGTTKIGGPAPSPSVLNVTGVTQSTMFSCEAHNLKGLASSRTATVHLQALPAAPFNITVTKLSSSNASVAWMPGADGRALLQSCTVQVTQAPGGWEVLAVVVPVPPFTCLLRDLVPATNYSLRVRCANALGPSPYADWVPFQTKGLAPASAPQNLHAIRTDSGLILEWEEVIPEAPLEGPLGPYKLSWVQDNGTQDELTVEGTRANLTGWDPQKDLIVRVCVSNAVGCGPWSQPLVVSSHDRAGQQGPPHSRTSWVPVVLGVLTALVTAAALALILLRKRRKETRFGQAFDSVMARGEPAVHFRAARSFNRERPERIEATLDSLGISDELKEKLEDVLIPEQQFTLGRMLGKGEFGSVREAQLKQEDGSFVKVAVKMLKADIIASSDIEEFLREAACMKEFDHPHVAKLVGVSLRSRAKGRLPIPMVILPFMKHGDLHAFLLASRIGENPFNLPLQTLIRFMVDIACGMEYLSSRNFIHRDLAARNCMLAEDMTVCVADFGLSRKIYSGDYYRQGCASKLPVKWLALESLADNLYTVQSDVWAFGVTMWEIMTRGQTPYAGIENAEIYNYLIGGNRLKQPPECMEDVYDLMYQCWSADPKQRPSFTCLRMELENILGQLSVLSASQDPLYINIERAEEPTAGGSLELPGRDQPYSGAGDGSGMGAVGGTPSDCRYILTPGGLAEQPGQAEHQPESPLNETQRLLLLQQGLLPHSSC
As to the kind of experiment: Inhibition of human recombinant TYRO3 at 40 nM related to control ULK1.

In assay [3] the target is T3, Tyrosine-protein kinase JAK3 (Homo sapiens) (UniProt P52333).
T3 sequence (whole entry): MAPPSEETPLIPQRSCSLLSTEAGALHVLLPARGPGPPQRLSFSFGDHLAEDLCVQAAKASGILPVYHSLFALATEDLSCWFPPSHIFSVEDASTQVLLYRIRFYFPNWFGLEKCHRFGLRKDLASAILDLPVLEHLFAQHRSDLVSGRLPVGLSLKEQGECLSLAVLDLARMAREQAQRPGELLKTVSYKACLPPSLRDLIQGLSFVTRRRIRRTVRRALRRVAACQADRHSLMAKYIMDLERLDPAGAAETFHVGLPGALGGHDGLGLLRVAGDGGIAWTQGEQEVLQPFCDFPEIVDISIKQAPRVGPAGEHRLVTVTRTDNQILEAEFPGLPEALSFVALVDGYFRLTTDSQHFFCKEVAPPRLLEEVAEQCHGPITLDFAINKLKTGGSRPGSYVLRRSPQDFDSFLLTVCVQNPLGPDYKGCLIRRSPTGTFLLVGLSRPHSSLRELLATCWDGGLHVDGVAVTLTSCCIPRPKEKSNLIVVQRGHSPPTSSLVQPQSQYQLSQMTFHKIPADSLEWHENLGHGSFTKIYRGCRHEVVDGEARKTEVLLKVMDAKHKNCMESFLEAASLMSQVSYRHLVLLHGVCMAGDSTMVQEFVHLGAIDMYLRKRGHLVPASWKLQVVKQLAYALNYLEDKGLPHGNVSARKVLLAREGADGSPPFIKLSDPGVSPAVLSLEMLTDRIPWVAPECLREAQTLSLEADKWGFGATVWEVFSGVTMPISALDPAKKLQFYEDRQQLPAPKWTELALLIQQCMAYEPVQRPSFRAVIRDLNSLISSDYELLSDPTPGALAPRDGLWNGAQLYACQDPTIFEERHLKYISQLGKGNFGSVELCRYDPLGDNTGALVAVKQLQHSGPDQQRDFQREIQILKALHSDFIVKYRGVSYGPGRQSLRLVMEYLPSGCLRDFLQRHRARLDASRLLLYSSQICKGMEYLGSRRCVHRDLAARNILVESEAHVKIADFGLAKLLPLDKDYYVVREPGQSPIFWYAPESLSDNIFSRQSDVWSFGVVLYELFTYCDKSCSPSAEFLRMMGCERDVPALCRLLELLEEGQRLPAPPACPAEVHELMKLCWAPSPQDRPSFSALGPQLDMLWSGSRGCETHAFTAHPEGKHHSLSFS
As to the kind of experiment: Inhibition of human recombinant JAK3 at 15 nM in presence of ATP by radiometric assay relative to control.

In assay [4] the target is Homeodomain-interacting protein kinase 2 (Homo sapiens) (UniProt Q9H2X6). Description: Inhibition of human recombinant HIPK2 at 15 nM in presence of ATP by radiometric assay relative to control.
Chain of Homeodomain-interacting protein kinase 2 (Homo sapiens) (Q9H2X6 whole entry, looked up): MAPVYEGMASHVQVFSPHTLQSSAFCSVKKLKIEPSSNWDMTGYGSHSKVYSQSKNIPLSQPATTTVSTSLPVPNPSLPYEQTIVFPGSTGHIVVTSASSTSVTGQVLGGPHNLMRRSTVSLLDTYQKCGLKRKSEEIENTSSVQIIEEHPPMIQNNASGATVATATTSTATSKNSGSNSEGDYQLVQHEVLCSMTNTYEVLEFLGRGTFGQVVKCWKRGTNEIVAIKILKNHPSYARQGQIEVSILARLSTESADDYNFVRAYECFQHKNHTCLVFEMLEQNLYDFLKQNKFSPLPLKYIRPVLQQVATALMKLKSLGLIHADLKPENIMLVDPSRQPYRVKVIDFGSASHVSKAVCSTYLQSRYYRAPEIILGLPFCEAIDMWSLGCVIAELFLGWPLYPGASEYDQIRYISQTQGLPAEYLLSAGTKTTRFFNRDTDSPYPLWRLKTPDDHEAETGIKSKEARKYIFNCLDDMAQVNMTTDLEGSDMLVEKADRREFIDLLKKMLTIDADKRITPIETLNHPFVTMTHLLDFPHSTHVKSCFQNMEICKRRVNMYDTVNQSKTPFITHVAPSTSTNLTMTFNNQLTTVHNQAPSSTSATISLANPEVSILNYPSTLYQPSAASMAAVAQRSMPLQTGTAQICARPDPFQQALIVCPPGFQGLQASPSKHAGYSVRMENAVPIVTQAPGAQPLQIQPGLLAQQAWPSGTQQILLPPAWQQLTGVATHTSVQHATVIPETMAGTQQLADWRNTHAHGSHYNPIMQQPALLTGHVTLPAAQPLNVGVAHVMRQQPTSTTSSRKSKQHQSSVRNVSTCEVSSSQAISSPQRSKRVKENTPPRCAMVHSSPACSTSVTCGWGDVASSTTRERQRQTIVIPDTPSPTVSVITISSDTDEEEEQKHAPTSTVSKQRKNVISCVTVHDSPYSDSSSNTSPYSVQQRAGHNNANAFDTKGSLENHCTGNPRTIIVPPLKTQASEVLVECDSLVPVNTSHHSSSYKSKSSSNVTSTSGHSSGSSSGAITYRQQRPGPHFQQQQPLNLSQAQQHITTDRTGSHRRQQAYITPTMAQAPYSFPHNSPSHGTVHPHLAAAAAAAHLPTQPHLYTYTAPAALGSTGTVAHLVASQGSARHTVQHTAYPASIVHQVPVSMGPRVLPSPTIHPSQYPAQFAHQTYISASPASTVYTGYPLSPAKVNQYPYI

As to `O=C(N[C@@H](C1CC1)C(F)(F)F)c1cc(-c2cnn3cc(-c4ccc(F)cc4)cnc23)cs1`, the fold change (FC) in assay [1] was 0.07; in assay [2], 0.
As for `CC(C)[C@H](NC(=O)c1cc(-c2cnn3cc(-c4ccc(OCCN5CCCCC5)cc4)cnc23)cs1)C(F)(F)F`, the inhibition in assay [3] was determined as 0%; in assay [4], 3%.

The inhibition is the drop in the measured response relative to a control, in per cent.
